The target of experiment [1] is T1, DNA primase (Bacillus anthracis, UniProt A0A6L8PXB3).
T1 sequence (A0A6L8PXB3 whole entry): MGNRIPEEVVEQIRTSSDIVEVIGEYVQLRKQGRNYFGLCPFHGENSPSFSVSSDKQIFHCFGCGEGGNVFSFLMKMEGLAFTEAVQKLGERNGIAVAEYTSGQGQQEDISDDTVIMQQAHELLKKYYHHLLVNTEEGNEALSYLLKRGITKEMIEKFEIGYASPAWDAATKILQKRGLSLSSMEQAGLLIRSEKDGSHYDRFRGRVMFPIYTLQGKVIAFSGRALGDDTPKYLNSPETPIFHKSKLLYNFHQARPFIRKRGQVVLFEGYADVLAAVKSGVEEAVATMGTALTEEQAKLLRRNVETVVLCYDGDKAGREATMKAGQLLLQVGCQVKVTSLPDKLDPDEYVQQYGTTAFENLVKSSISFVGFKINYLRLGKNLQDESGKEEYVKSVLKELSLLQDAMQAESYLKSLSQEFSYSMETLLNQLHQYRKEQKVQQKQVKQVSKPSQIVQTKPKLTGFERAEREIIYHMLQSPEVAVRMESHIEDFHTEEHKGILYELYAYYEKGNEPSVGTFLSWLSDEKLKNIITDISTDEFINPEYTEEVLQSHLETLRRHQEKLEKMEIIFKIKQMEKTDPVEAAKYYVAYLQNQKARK
The experiment can be described thus: Quatitative Inhibition Analysis Assay. The settings on record: pH 8.8. How it is done: (§1) The reaction mixture contained DNA (1.25 uM or as specified), NTP (110 uM or as specified), 50 mM NaCl, 150 mM potassium glutamate, buffer [20 mM CAPS (pH 8.8) or as specified], and divalent metals (2 mM Mn2+ and 1 mM Mg2+). The assay was performed in 96-well plates with 4 uM Ba DnaG.

The target of experiment [2] is T2, DNA primase (Mycobacterium tuberculosis (strain CDC 1551 / Oshkosh), UniProt P9WNW0).
T2 sequence (P9WNW0 whole entry): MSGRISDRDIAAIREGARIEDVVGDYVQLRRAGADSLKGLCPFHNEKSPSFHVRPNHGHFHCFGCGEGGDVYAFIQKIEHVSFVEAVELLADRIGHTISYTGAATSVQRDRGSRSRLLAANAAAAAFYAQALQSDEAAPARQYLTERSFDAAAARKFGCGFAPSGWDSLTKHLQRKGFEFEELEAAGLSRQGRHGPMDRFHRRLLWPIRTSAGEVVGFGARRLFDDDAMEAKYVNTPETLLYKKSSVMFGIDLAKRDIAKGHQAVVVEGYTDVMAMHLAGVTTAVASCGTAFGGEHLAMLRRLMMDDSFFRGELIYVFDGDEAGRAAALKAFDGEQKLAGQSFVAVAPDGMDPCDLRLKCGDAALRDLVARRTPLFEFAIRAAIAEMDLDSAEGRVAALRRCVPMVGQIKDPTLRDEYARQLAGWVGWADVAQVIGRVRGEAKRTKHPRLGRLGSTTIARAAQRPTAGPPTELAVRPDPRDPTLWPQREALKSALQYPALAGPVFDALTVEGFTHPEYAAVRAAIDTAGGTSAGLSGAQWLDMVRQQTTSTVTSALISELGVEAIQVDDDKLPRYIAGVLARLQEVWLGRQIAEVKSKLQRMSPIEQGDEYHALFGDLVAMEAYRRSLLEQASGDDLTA
Nature of the experiment: Quatitative Inhibition Analysis Assay. Conditions: pH 8.8. The method, then:
as §1

What is called IC50 is the concentration that gives 50% inhibition. A lower IC50 goes with higher potency. On DNA primase [1], `Cc1ccc(C(=O)Nc2ccc(S(=O)(=O)O)c3cc(S(=O)(=O)O)cc(S(=O)(=O)O)c23)cc1NC(=O)c1cccc(NC(=O)Nc2cccc(C(=O)Nc3cc(C(=O)Nc4ccc(S(=O)(=O)O)c5cc(S(=O)(=O)O)cc(S(=O)(=O)O)c45)ccc3C)c2)c1` [Suramin hexasodium] came in with an IC50 of 8.2 µM. The same measure, in the same setting: next, `O=c1oc2c(O)c(O)cc3c(=O)oc4c(O)c(O)cc1c4c23` [Elagic Acid]: over 100 µM. At DNA primase [1], `C[C@H]1COc2c(N3CCN(C)CC3)c(F)cc3c(=O)c(C(=O)O)cn1c23` [Levaquin] had an IC50 of 75 µM. In the case of `COc1cccc2c1C(=O)c1c(O)c3c(c(O)c1C2=O)C[C@@](O)(C(=O)CO)C[C@@H]3O[C@H]1C[C@H](N)[C@H](O)[C@H](C)O1` [Adriamycin], the IC50 against DNA primase [1] was determined as 4.4 µM; against DNA primase [2], 9.3 µM. For `CCN(CC)CCOc1ccc2c(c1)C(=O)c1cc(OCCN(CC)CC)ccc1-2` [Amixin IC], in that order: 7.1 µM and 69 µM.

For the origin of these results see BindingDB's records for doi:10.1021/bi4011286 (University of Michigan, 2013).
